Where two headings read alike, the source gives them in different places.
Tests used:
[1] = system: zebrafish (Danio rerio) embryo; experiment: zebrafish embryo teratogenicity assay; details: for percent deformity: 15, 30 and 60 µM (≥ 15 µM); for EC50: read-out: EC50 (for teratogenicity) and LC50, equivalently calculated; for EC50/LC50: retinoids, deformity equivalent to mortality, probit analysis
[2] = format: physicochemical; details: mild heating; standing at room temperature and ambient light
RAR = details: ref Repa et al., 1993; cited from earlier work
[3] = system: zebrafish (Danio rerio) embryo; details: ref Hermann, 1995; Selderslaghs et al., 2009; Wang et al., 2014; cited from earlier work

**Q.** What does the source list for `CC1=C(/C=C/C(C)=C/C=C/C(C)=C/C=C/C=C(C)/C=C/C=C(C)/C=C/C2=C(C)C(=O)CCC2(C)C)C(C)(C)CCC1=O` [canthaxanthin]?
**A.** observed deformities (Fig. 5) ([1]; 30 µM, 3 dpf): head and eye hypoplasia and truncated tail; percent deformity (development toxicity) ([1]; 2 dpf, 60 µM): approximately 89%; percent deformity ([1]; by 3 dpf): 100%; EC50 ([1]; at 5 dpf, ± standard error): 8.7 ± 1.8 µM

**Q.** With `CC1=C(/C=C/C(C)=C/C=C/C(C)=C/C=C/C=C(C)/C=C/C=C(C)/C=C/C2=C(C)CCCC2(C)C)C(C)(C)CCC1` [β-carotene] as the compound, how does the “observed deformities (Fig. 5)” value ([1]; 30 µM, 5 dpf) read?
**A.** truncated tail and pericardial edema

**Q.** And the EC50 ([1]; Danio rerio)?
**A.** 23.5 ± 8.9 µM

**Q.** Which stability [2] does the source give for `CC1=C(/C=C/C(C)=C/C=C/C(C)=C/C=C/C=C(C)/C=C/C=C(C)/C=C/C=C(C)/C=C/[C@H](O[C@@H]2O[C@@H](C)[C@@H](O)[C@@H](O)[C@@H]2O)C(C)(C)O)C(C)(C)C[C@H](O)C1` [Compound 1, Myxol 2′-glycoside] here?
**A.** highly unstable

**Q.** What about the “observed deformities (Fig. 5)” value ([1]; 5 µM, 3 and 5 dpf) of the same compound?
**A.** head and eye hypoplasia, truncated tail and pericardial edema

**Q.** What about the “concentration showing pronounced developmental dysfunction” value ([1]; by 3 dpf) of the same compound?
**A.** ≥ 5 µM

**Q.** What about the percent deformity ([1]; by 3 dpf) of the same compound?
**A.** 100%

**Q.** What about the EC50 ([1]; at 5 dpf, ± standard error) of the same compound?
**A.** 2.4 ± 0.9 µM

**Q.** Which “observed deformities (Fig. 5)” value ([1]; 60 µM, 3 dpf) does the source give for `CC1=C(/C=C/C(C)=C/C=C/C(C)=C/C=C/C=C(C)/C=C/C=C(C)/C=C/C2=C(C)C[C@@H](O)CC2(C)C)C(C)(C)C[C@H](O)C1` [zeaxanthin] here?
**A.** little effect

**Q.** What about the embryo development ([1]; 3–5 dpf, 60 µM) of the same compound?
**A.** developed normally

**Q.** What about the teratogenicity ([1]; 5-day exposure studies, 1-60 µM) of the same compound?
**A.** no teratogenicity was observed

**Q.** With `CC1=C[C@H](O)CC(C)(C)[C@H]1/C=C/C(C)=C/C=C/C(C)=C/C=C/C=C(C)/C=C/C=C(C)/C=C/C1=C(C)C[C@@H](O)CC1(C)C` [lutein] as the compound, how does the “observed deformities (Fig. 5)” value ([1]; 30 µM) read?
**A.** head and eye hypoplasia and truncated tail

**Q.** What about the EC50 ([1]; Danio rerio) of the same compound?
**A.** 4.7 ± 3 µM

**Q.** What about the percent deformity ([1]; by 3 dpf) of the same compound?
**A.** 100%

**Q.** With “4-Hydroxymyxol 2′-glycoside [Compound 3]” as the compound, how does the “teratogenicity (qualitative, bioassay-guided fractionation)” value ([1]; in vivo) read?
**A.** single bioactive component

**Q.** Which teratogenicity ([1]; at 3 dpf) does the source give for `CC1=C(/C=C/C(C)=C/C=C/C(C)=C/C=C/C=C(C)/C=C/C=C(\C)C=O)C(C)(C)CCC1` [β-apo-8’carotenal, trans-β-apo-8’carotenal] here?
**A.** no teratogenicity was observed

**Q.** What about the “developmental toxicity (percent deformity)” value ([1]; at 5 dpf, not significantly different from controls) of the same compound?
**A.** ~ 22%

**Q.** What does the source list for `CC1=C(/C=C/C(C)=C/C=C/C(C)=C/C=O)C(C)(C)CCC1` [retinal, all-trans retinaldehyde]?
**A.** binding affinity to RAR (RAR): essentially no binding affinity; EC50/LC50 [1]: 1.8 ± 0.7 µM

**Q.** With 4-Ketomyxol 2′-glycoside [Compound 2] as the compound, how does the stability [2] read?
**A.** highly unstable

**Q.** What about the “observed deformities (Fig. 5)” value ([1]; 3 and 5 dpf) of the same compound?
**A.** head and eye hypoplasia and truncated tail

**Q.** What about the “additional concentration with significant percent deformity” value ([1]; by 3 dpf) of the same compound?
**A.** 5 µM

**Q.** And the “concentration showing pronounced developmental dysfunction” value ([1]; by 3 dpf)?
**A.** ≥ 5 µM

**Q.** And the percent deformity ([1]; by 3 dpf)?
**A.** 100%

**Q.** And the EC50 ([1]; at 5 dpf, ± standard error)?
**A.** 1.8 ± 0.2 µM

**Q.** Which EC50/LC50 [1] does the source give for `CC1=C(/C=C/C(C)=C/C=C/C(C)=C/CO)C(C)(C)CCC1` [retinol] here?
**A.** 9.2 ± 7.6 µM

**Q.** Which “LC50 and EC50 (for teratogenicity) previously reported in the zebrafish embryo” value [3] does the source give for `CC1=C(/C=C/C(C)=C/C=C/C(C)=C/C(=O)O)C(C)(C)CCC1` [RA, all-trans retinoic acid] here?
**A.** nanomolar to sub-nanomolar range

**Q.** And the “teratogenicity at lowest concentration tested” value ([1]; 1 µM)?
**A.** effectively lethal

**Q.** What about the “observed deformities (Fig. 5)” value ([1]; 1 µM, 3 dpf and 5 dpf) of the same compound?
**A.** severely arrested development of the body axis including head and eye hypoplasia and truncated tail

Reference: article PMC5835316 (Chemosphere, 2017)
